These results are taken from patent US20070249560A1, “Hydrolysis resistant organomodified silyated surfactants” (priority 2006, published 2007).

Data set [1] can be described thus: Spreading of 10 μL droplet on polystyrene Petri dishes. To be noted: 30 seconds. It counts as physicochemical. The procedure:
Spreading was determined by applying a 10 μL droplet, of surfactant solution to polystyrene Petri dishes (Fisher Scientific) and measuring the spread diameter (mm) after 30 seconds, at a relative humidity between 50 and 70% (at 22 to 25° C.). The solution was applied with an automatic pipette to provide droplets of reproducible volume. Deionized water that was further purified with a Millipore filtration system was used to prepare the surfactant solutions.

The nature of data set [2]: Surface tension, Kruss surface tensiometer. In kind it is physicochemical. To be noted: 0.1 wt % in 0.005M NaCl water. On the procedure:
Surface tension was measured using a Kruss surface tensiometer, with a sand blasted platinum blade as the sensor. Solutions of the various components were prepared at 0.1 wt % in 0.005M NaCl water (deionized), as an equilibrium aid.

In the case of `C[Si](C)(C)CC[Si](C)(C)CCCOCCOCCOCCOCCOCCOCCOCCOCCOCCOCCOCCO` [Product 9], the “Spread Diameter (mm)” value in data set [1] (0.1% weight surfactant) and in data set [1] (0.5% weight surfactant) was 7 mm each time. In addition, the “Surface Tension” value in data set [2] was 26.7 mN/m.
On to `C[Si](C)(C)C[Si](C)(C)CCCOCCOCCOCCOCCO` [Product 6], for which the “Spread Diameter (mm)” value in data set [1] (0.05% weight surfactant) is 40 mm; in data set [1] (0.1% weight surfactant), 45 mm; in data set [1] (0.3% weight surfactant) it was 53 mm; in data set [1] (0.5% weight surfactant) it was 47 mm. Also, in data set [2], the “Surface Tension” value was 22.5 mN/m.
Take `C[Si](C)(C)CC[Si](C)(C)CCCOCCOCCOCCOCCO` [Product 7]: the “Spread Diameter (mm)” value in data set [1] (0.05% weight surfactant) amounted to 30 mm; in data set [1] (0.1% weight surfactant) it was 42 mm; in data set [1] (0.3% weight surfactant), 48 mm; in data set [1] (0.5% weight surfactant) it was 49 mm. Moreover, in data set [2], the “Surface Tension” value is on record as 22.7 mN/m.
As to `C[Si](C)(C)C[Si](C)(C)CCCOCCOCCOCCOCCOCCOCCOCCOCCOCCOCCOCCO` [Product 8], the “Spread Diameter (mm)” value in data set [1] (0.1% weight surfactant) and in data set [1] (0.5% weight surfactant) was 7 mm in each case. For the same compound, the “Surface Tension” value in data set [2] stood at 27.7 mN/m.
On to “Octylphenolethoxylate, containing 10 polyoxyethylene units [OPE, reference compound]”, for which the results for the “Spread Diameter (mm)” value in data set [1] (0.1% weight surfactant) and in data set [1] (0.5% weight surfactant) were 9 mm and 10 mm, respectively. For the same compound, the “Surface Tension” value in data set [2] is listed as 31.8 mN/m.
